This is an account of results in patent US11180504B2 (ORCHID PHARMA LTD., priority 2016, dated 2021).

≈ marks a conversion by molar mass, not a printed value. Read-outs that look alike come from different tables or passages of the source.

Test [1] concerns methicillin-sensitive Staphylococcus aureus. Put plainly: MIC by broth micro-dilution (CLSI), methicillin-sensitive S. aureus. The format is cell-based. The following applies: Staphylococcus aureus, MSSA S. aureus ATCC29213, read-out: MIC. For orientation: In broth dilution the organism is exposed to a series of concentrations in liquid medium.
The subject of test [2] is carbapenem sensitive Escherichia coli. Put plainly: MIC by broth micro-dilution (CLSI), carbapenem sensitive E. coli. The following applies: Escherichia coli, ATCC25922, ESBL −ve E. coli ATCC25922; read-out: MIC. The format is cell-based.
In test [3] the test system is carbapenemase producing K. pneumoniae. Put plainly: MIC by broth micro-dilution (CLSI), carbapenemase producing K. pneumoniae. The format is cell-based, Klebsiella pneumoniae. The following applies: Klebsiella pneumoniae, ATCCBAA1705, KPC-2 K. pneumoniae ATCC BAA-1705; read-out: MIC.
In test [4] the test system is carbapenem sensitive Pseudomonas aeruginosa. Put plainly: MIC by broth micro-dilution (CLSI), carbapenem sensitive P. aeruginosa. The format is cell-based. The following applies: Pseudomonas aeruginosa, ATCC27853, Meropenem susceptible P. aeruginosa ATCC27853; read-out: MIC.

As to `C[C@@H](NC(=O)Cn1cnnn1)[C@H]1C(=O)N2C(C(=O)O)=C(S[C@@H]3CN[C@H](C(=O)N4CCC5CNCC5(C(=O)O)C4)C3)[C@H](C)[C@H]12` (stereo partly drawn) [Example 562, 5-((2S,4S)-4-((4R,5S,6R)-6-((R)-1-(2-(1H-tetrazol-1-yl)acetamido)ethyl)-2-carboxy-4-methyl-7-oxo-1-azabicyclo[3.2.0]hept-2-en-3-yl-thio)pyrrolidine-2-carbonyl)octahydro-1H-pyrrolo[3,4-c]pyridine-3a-carboxylic acid], the MIC – broadly, the least concentration at which growth counts as inhibited – in test [1] (ATCC 29213 / MSSA) came out at 16 µg/mL (≈ 25.9 µM); in test [2], 0.5 µg/mL (≈ 0.809 µM); in test [3], 2 µg/mL (≈ 3.24 µM); in test [4], 2 µg/mL (≈ 3.24 µM).

Turning to `C[C@@H](NC(=O)Cn1cnnn1)[C@H]1C(=O)N2C(C(=O)O)=C(S[C@@H]3CN[C@H](C(=O)N4CCC(n5nccn5)CC4)C3)[C@H](C)[C@H]12` [Example 448, (4R,5S,6R)-6-((R)-1-(2-(1H-tetrazol-1-yl)acetamido)ethyl)-3-((3S,5S)-5-(4-(2H-1,2,3-triazol-2-yl)piperidine-1-carbooyl)pyrrolidin-3-ylthio)-4-methyl-7-oxo-1-azabicyclo[3.2.0]hept-2-ene-2-carboxylic acid], the minimum inhibitory concentration (MIC) is 4 µg/mL (≈ 6.67 µM) in test [1] (ATCC 29213 / MSSA), 0.5 µg/mL (≈ 0.834 µM) in test [2], 8 µg/mL (≈ 13.3 µM) in test [3] and greater than 128 µg/mL in test [4].

With `C[C@@H](NC(=O)Cn1nnnc1N(C)C)[C@H]1C(=O)N2C(C(=O)O)=C(S[C@@H]3CN[C@H](C(=O)N(C)C)C3)[C@H](C)[C@H]12` [Example 383, (4R,5S,6R)-6-((R)-1-(2-(5-(dimethylamino)-1H-tetrazol-1-yl)acetamido)ethyl)-3-((3S,5S)-5-(dimethylcarbamoyl)pyrrolidin-3-ylthio)-4-methyl-7-oxo-1-azabicyclo[3.2.0]hept-2-ene-2-carboxylic acid], the MIC in test [1] (ATCC 29213 / MSSA) is 4 µg/mL (≈ 7.47 µM); in test [2], 0.25 µg/mL (≈ 0.467 µM); in test [3] it was 4 µg/mL (≈ 7.47 µM); in test [4], greater than 128 µg/mL.

With `C[C@@H](NC(=O)Cc1nnnn1C)[C@H]1C(=O)N2C(C(=O)O)=C(S[C@@H]3CN[C@H](C(=O)N(C)C)C3)[C@H](C)[C@H]12` [Example 304, (4R,5S,6R)-3-((3S,5S)-5-(dimethylcarbamoyl)pyrrolidin-3-ylthio)-4-methyl-6-((R) - 1-(2-(1-methyl-1H-tetrazol-5-yl)acetamido)ethyl)-7-oxo-1-azabicyclo[3.2.0]hept-2-ene-2-carboxylic acid], the MIC in test [1] (ATCC 29213 / MSSA) was 8 µg/mL (≈ 15.8 µM); in test [2], 1 µg/mL (≈ 1.97 µM); in test [3], 4 µg/mL (≈ 7.9 µM); in test [4], greater than 128 µg/mL.

As for `C[C@@H](NC(=O)Cn1cnnn1)[C@H]1C(=O)N2C(C(=O)O)=C(S[C@@H]3CN[C@H](C(=O)N4CC[C@@H](C(C)(C)N)C4)C3)[C@H](C)[C@H]12` [Example 500, (4R,5S,6R)-6-((R)-1-(2-(1H-tetrazol-1-yl)acetamido)ethyl)-3-((3S,5S)-5-((R)-3-(2-aminopropan-2-yl)pyrrolidine-1-carbonyl)pyrrolidin-3-ylthio)-4-methyl-7-oxo-1-azabicyclo[3.2.0]hept-2-ene-2-carboxylic acid], the MIC in test [1] (ATCC 29213 / MSSA) is 2 µg/mL (≈ 3.47 µM); in test [2], 0.25 µg/mL (≈ 0.434 µM); in test [3], 2 µg/mL (≈ 3.47 µM); in test [4] it was 2 µg/mL (≈ 3.47 µM).

`C[C@@H](NC(=O)CCn1cnnn1)[C@H]1C(=O)N2C(C(=O)O)=C(S[C@@H]3CN[C@H](C(=O)N4CC[C@@H](N)C4)C3)[C@H](C)[C@H]12` [Example 369, (4R,5S,6R)-6-((R)-1-(3-(1H-tetrazol-1-yl)propanamido)ethyl)-3-((3S,5S)-5-((R)-3-aminopyrrolidine-1-carbonyl)pyrrolidin-3-ylthio)-4-methy-7-oxo-1-azabicyclo[3.2.0]hept-2-ene-2-carboxylic acid]: the minimal inhibitory concentration (MIC) in test [1] (ATCC 29213 / MSSA) worked out at 2 µg/mL (≈ 3.65 µM); in test [2] it was 0.25 µg/mL (≈ 0.457 µM); in test [3] it was 8 µg/mL (≈ 14.6 µM); in test [4], 16 µg/mL (≈ 29.2 µM).

With `C[C@@H](NC(=O)Cn1cnnn1)[C@H]1C(=O)N2C(C(=O)O)=C(S[C@@H]3CN[C@H](C(=O)N4C[C@@H](N)C[C@H]4CF)C3)[C@H](C)[C@H]12` [Example 491, (4R,5S,6R)-6-((R)-1-(2-(1H-tetrazol-1-yl)acetamido)ethyl)-3-((3S,5S)-5-((2S,4S)-4-amino-2-(fluoromethyl)pyrrolidine-1-carbonyl)pyrrolidin-3-ylthio)-4-methyl-7-oxo-1-azabicyclo[3.2.0]hept-2-eoe-2-carboxylic acid], the minimum inhibitory concentration (MIC) in test [1] (ATCC 29213 / MSSA) amounted to 4 µg/mL (≈ 7.07 µM); in test [2], 0.25 µg/mL (≈ 0.442 µM); in test [3], 2 µg/mL (≈ 3.54 µM); in test [4], 8 µg/mL (≈ 14.1 µM).

In the case of `CNCC(=O)N[C@H](C)[C@H]1C(=O)N2C(C(=O)O)=C(S[C@@H]3CN[C@H](C(=O)N4CCC(N)(C(N)=O)CC4)C3)[C@H](C)[C@H]12` [Example 277], the MIC came to 64 µg/mL (≈ 116 µM) in test [1] (ATCC 29213 / MSSA), 2 µg/mL (≈ 3.63 µM) in test [2], 4 µg/mL (≈ 7.25 µM) in test [3] and 16 µg/mL (≈ 29 µM) in test [4].

For the compound `C[C@@H](NC(=O)C(F)F)[C@H]1C(=O)N2C(C(=O)O)=C(S[C@@H]3CN[C@H](CNS(=O)(=O)N4CC[C@H](N)C4)C3)[C@H](C)[C@H]12` [Example 237], the MIC in test [1] (ATCC 29213 / MSSA) came out at 1 µg/mL (≈ 1.76 µM); in test [2], 2 µg/mL (≈ 3.53 µM); in test [3], 4 µg/mL (≈ 7.06 µM); in test [4], 128 µg/mL (≈ 226 µM).

Consider `C[C@@H](NC(=O)Cn1cnnn1)[C@H]1C(=O)N2C(C(=O)O)=C(S[C@@H]3CN[C@H](C(=O)N4C[C@@H](O)[C@H](O)C4)C3)[C@H](C)[C@H]12` [Example 396, (4R,5S,6R)-6-((R)-1-(2-(1H-tetrazol-1-yl)acetamido)ethyl)-3-((3S,5S)-5-((3R,4R)-3,4-dihydroxypyrrolidine-1-carbonyl)pyrrolidin-3-ylthio)-methyl-7-oxo-1-azabicyclo[3.2.0]hept-2-ene-2-carboxylic acid], for which the minimal inhibitory concentration (MIC) in test [1] (ATCC 29213 / MSSA) worked out at 4 µg/mL (≈ 7.26 µM); in test [2], 0.125 µg/mL (≈ 0.227 µM); in test [3], 1 µg/mL (≈ 1.82 µM); in test [4] it was 4 µg/mL (≈ 7.26 µM).

For `C[C@@H](NC(=O)CN1CCCC1)[C@H]1C(=O)N2C(C(=O)O)=C(S[C@@H]3CN[C@H](C(=O)N(C)C)C3)[C@H](C)[C@H]12` [Example 458, (4R,5S,6R)-3-((3S,5S)-5-(dimethylcarbamoyl)pyrrolidin-3-ylthio)-4-methyl-7-oxo-6-((R)-1-(2-(pyrrolidin-1-yl)acetamido)ethyl)-1-azabicyclo[3.2.0)hept-2-eoe-2-carboxylic acid], the MIC was 16 µg/mL (≈ 32.4 µM) in test [1] (ATCC 29213 / MSSA), 0.5 µg/mL (≈ 1.01 µM) in test [2], 1 µg/mL (≈ 2.03 µM) in test [3] and 16 µg/mL (≈ 32.4 µM) in test [4].

Take `C[C@@H](NC(=O)Cn1cnnn1)[C@H]1C(=O)N2C(C(=O)O)=C(S[C@@H]3CN[C@H](C(=O)N4CCC5CNCC5C4)C3)[C@H](C)[C@H]12` (single isomer, unassigned) [Example 533]: the MIC was found to be 4 µg/mL (≈ 6.97 µM) in test [1] (ATCC29213|MSSA), 0.25 µg/mL (≈ 0.436 µM) in test [2], 2 µg/mL (≈ 3.49 µM) in test [3] and 2 µg/mL (≈ 3.49 µM) in test [4].

As to `C[C@@H](NC(=O)Cn1cnnn1)[C@H]1C(=O)N2C(C(=O)O)=C(SC3CNC3)[C@H](C)[C@H]12` [Example 407, (4R,5S,6R)-6-((R)-1-(2-(1H-tetrazol-1-yl)acetamido)ethyl)-3-(azetidin-3-ylthio)-4-methyl-7-oxo-1-azabicyclo[3.2.0]hept-2-ene-2-carboxylic acid], the minimal inhibitory concentration (MIC) in test [1] (ATCC 29213 / MSSA) came out at 2 µg/mL (≈ 4.91 µM); in test [2], 0.5 µg/mL (≈ 1.23 µM); in test [3] it was 1 µg/mL (≈ 2.45 µM); in test [4], 8 µg/mL (≈ 19.6 µM).
